# Measured values taken from the OligoGym collection.
# Several values for one entry are separate records, joined by “and”; a condition that tells them apart may be missing. Identical values can stand only once. After the bases stand the sugars from the 5' end (letter, count) and the backbone: PS all phosphorothioate, else s phosphorothioate and o phosphodiester by linkage. Methylation of C is not given here. e = 2'-O-(2-methoxyethyl) (MOE); l = locked nucleic acid (LNA); d = 2'-deoxy (DNA)
# Legend:
# SNHG14 = details: ASO, Human Neuronal Cell
# DGAT2 = details: ASO
sequence,measurement,setting,value
"AAAATCTCAACTACCATTT (sugars lddddlddddddlllldll, PS)",target mRNA inhibition,SNHG14; 7.5 µM,45%
"AAAATCTCAACTACCATTT (sugars ldlldlddddddddlldll, PS)",target mRNA inhibition,SNHG14; 7.5 µM,30%
"AAAATCTCAACTACCATTTT (sugars l1 d12 l4 d1 l2, PS)",target mRNA inhibition,SNHG14; 7.5 µM,42%
"AAAATCTCAACTACCATTTT (sugars l3 d11 l2 d1 l3, PS)",target mRNA inhibition,SNHG14; 7.5 µM,12%
"AAAATCTCAACTACCATTTT (sugars ldllddldddddddllddll, PS)",target mRNA inhibition,SNHG14; 7.5 µM,5%
"AAAATCTCAACTACCATTTT (sugars lllldldddddddlddllll, PS)",target mRNA inhibition,SNHG14; 7.5 µM,14%
"AAAATTATTTATACACCATC (sugars lldddllddddddllldlll, PS)",target mRNA inhibition,SNHG14; 7.5 µM,63%
"AAACTACCCTGCACAA (sugars l3 d10 l3, PS)",target mRNA inhibition,SNHG14; 0.2 µM,22%
same,target mRNA inhibition,SNHG14; 1 µM,39%
"AAACTTTCCCAACATTAT (sugars l2 d12 l4, PS)",target mRNA inhibition,SNHG14; 0.2 µM,35%
same,target mRNA inhibition,SNHG14; 1 µM,49%
"AAATCTCAACTACCATTTTT (sugars ldddldlddddddldlddll, PS)",target mRNA inhibition,SNHG14; 7.5 µM,41%
"AAATCTCAACTACCATTTTT (sugars lldlldldddddddldddll, PS)",target mRNA inhibition,SNHG14; 7.5 µM,53%
"AAATTATTTATACACCATCA (sugars ldddlldddddddldldlll, PS)",target mRNA inhibition,SNHG14; 7.5 µM,67%
"AAATTATTTATACACCATCA (sugars ldlllddddddddlddllll, PS)",target mRNA inhibition,SNHG14; 7.5 µM,68%
"AAATTATTTATACACCATCA (sugars ldllllddddddddldldll, PS)",target mRNA inhibition,SNHG14; 7.5 µM,70%
"AAATTTCTCAACCTAAATTT (sugars l2 d14 l4, PS)",target mRNA inhibition,SNHG14; 0.2 µM,-9%
same,target mRNA inhibition,SNHG14; 1 µM,2%
"AACATGTAATTTCCAT (sugars l2 d10 l4, PS)",target mRNA inhibition,SNHG14; 0.2 µM,31%
same,target mRNA inhibition,SNHG14; 1 µM,27%
"AACTCTCACTGTAACT (sugars l4 d10 l2, PS)",target mRNA inhibition,SNHG14; 0.2 µM,41%
same,target mRNA inhibition,SNHG14; 1 µM,53%
"AAGAAACACCCTTCCA (sugars l2 d10 l4, PS)",target mRNA inhibition,SNHG14; 0.2 µM,40%
same,target mRNA inhibition,SNHG14; 1 µM,54%
"AAGATCATTCTCAACA (sugars l4 d10 l2, PS)",target mRNA inhibition,SNHG14; 0.2 µM,60%
same,target mRNA inhibition,SNHG14; 1 µM,67%
"AAGATCATTCTCAACAAT (sugars l2 d2 l2 d6 l6, PS)",target mRNA inhibition,SNHG14; 7.5 µM,47%
"AAGATCATTCTCAACAAT (sugars lllldlddddddldllll, PS)",target mRNA inhibition,SNHG14; 7.5 µM,-6%
"AATTATTTATACACCATCAT (sugars lllddllddddddldlldll, PS)",target mRNA inhibition,SNHG14; 7.5 µM,56%
"AATTATTTATACACCATCAT (sugars llllddldddddddldddll, PS)",target mRNA inhibition,SNHG14; 7.5 µM,61%
"AATTTTTTTCTTACTATCTT (sugars ldllddddddddddllddll, PS)",target mRNA inhibition,SNHG14; 7.5 µM,44%
"AATTTTTTTCTTACTATCTT (sugars lldllldddddddddldlll, PS)",target mRNA inhibition,SNHG14; 7.5 µM,57%
"TAGAGCACTTGATCTGGGAC (sugars e5 d10 e5, PS)",target mRNA inhibition,"DGAT2; HepG2, 2.5 µM",38% and 46%
same,target mRNA inhibition,"DGAT2; HepG2, 10 µM",81% and 85%
"TAGCATTGCCACTCCCATTC (sugars e5 d10 e5, PS)",target mRNA inhibition,"DGAT2; HepG2, 0.12 µM",71%
"TAGCTCTCAGTGAAGCTGGA (sugars e5 d10 e5, PS)",target mRNA inhibition,"DGAT2; HepG2, 2.5 µM",84% and 81%
same,target mRNA inhibition,"DGAT2; HepG2, 10 µM",90% and 91%
"TAGGCATGCTTCCTCCCACT (sugars e5 d10 e5, PS)",target mRNA inhibition,"DGAT2; HepG2, 2.5 µM",65%
same,target mRNA inhibition,"DGAT2; HepG2, 10 µM",84%
"TAGGCTTTAGAAATTCACCA (sugars e5 d10 e5, PS)",target mRNA inhibition,"DGAT2; HepG2, 2.5 µM",71% and 72% and 76%
same,target mRNA inhibition,"DGAT2; HepG2, 10 µM",89% and 82% and 91%
"TATAATTTCTTTTAAATAAC (sugars e5 d10 e5, PS)",target mRNA inhibition,"DGAT2; HepG2, 0.12 µM",0%
"TATGCCTGGGAACTTCTTGC (sugars e5 d10 e5, PS)",target mRNA inhibition,"DGAT2; HepG2, 0.12 µM",26%
"TCAAACCTAGGTTCAGACTT (sugars e5 d10 e5, PS)",target mRNA inhibition,"DGAT2; HepG2, 0.12 µM",47%
"TCACCAGCTGGATGGGAAAG (sugars e5 d10 e5, PS)",target mRNA inhibition,"DGAT2; HepG2, 0.12 µM",22%
"TCACCAGGGCCTCCATGTAC (sugars e3 d14 e3, PS)",target mRNA inhibition,"DGAT2; HepG2, 0.12 µM",68%
"TCAGAGACTCAGCCGCACCC (sugars e5 d10 e5, PS)",target mRNA inhibition,"DGAT2; HepG2, 0.12 µM",43% and 55%
"TCAGCAGGTTGTGTGTCTTC (sugars e2 d13 e5, PS)",target mRNA inhibition,"DGAT2; HepG2, 0.12 µM",57%
"TCAGCAGGTTGTGTGTCTTC (sugars e5 d10 e5, PS)",target mRNA inhibition,"DGAT2; HepG2, 0.12 µM",56%
same,target mRNA inhibition,"DGAT2; HepG2, 2.5 µM",3%
"TCATACTAGACTATGCAGCC (sugars e5 d10 e5, PS)",target mRNA inhibition,"DGAT2; HepG2, 2.5 µM",72%
same,target mRNA inhibition,"DGAT2; HepG2, 10 µM",85%
"TCATACTTACTGTTCAGCAG (sugars e5 d10 e5, PS)",target mRNA inhibition,"DGAT2; HepG2, 2.5 µM",74% and 65%
same,target mRNA inhibition,"DGAT2; HepG2, 10 µM",93% and 89%
"TCATCTTTCCAGATCCGGAC (sugars e5 d10 e5, PS)",target mRNA inhibition,"DGAT2; HepG2, 2.5 µM",76%
same,target mRNA inhibition,"DGAT2; HepG2, 10 µM",89%
"TCCAAGTGTACTTTGAGCAT (sugars e5 d10 e5, PS)",target mRNA inhibition,"DGAT2; HepG2, 2.5 µM",58% and 54%
same,target mRNA inhibition,"DGAT2; HepG2, 10 µM",84% and 91%
"TCCAGGACCCTGGACATGAT (sugars e5 d10 e5, PS)",target mRNA inhibition,"DGAT2; HepG2, 0.12 µM",50%
"TCCATGTCAGAGAGGCTCAG (sugars e5 d10 e5, PS)",target mRNA inhibition,"DGAT2; HepG2, 2.5 µM",54%
same,target mRNA inhibition,"DGAT2; HepG2, 10 µM",91%
"TCCATTTTTTACCCAACCTT (sugars e5 d10 e5, PS)",target mRNA inhibition,"DGAT2; HepG2, 2.5 µM",56% and 49%
same,target mRNA inhibition,"DGAT2; HepG2, 10 µM",93% and 94%
"TCCCCTTGGCAGAGAAACTG (sugars e5 d10 e5, PS)",target mRNA inhibition,"DGAT2; HepG2, 0.12 µM",47%
"TCCGGACTGAATGTCACCTC (sugars e5 d10 e5, PS)",target mRNA inhibition,"DGAT2; HepG2, 2.5 µM",75%
same,target mRNA inhibition,"DGAT2; HepG2, 10 µM",85% and 90%
